The source of these data is ChEMBL document CHEMBL1201862, “PubChem BioAssay data set” (2004).

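In this assay, cells in 96-well plates receive the compound at five concentrations for 48 hours. Endpoints are linearly interpolated between the surrounding concentrations. GI50 marks 50% less growth.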 The source made the active and inactive calls. No stated cut-off is given here; in the data, active = GI50 up to about 1.1 µM and inactive = higher.

Some test systems named below: 786-0; A549; ACHN; COLO 205; DU-145; EKVX; HCC 2998; HCT-116; HCT-15; LOX IMVI; MCF7; NCI-H23; NCI/ADR-RES; RPMI-8226; SF-295; SK-OV-3; SR; SW-620; NCI-H460; SF-268.
What all share (assay): growth of human tumour cells (NCI), 48 h

For `COC(=O)Nc1cc(OCCCOC(C)=O)c2[nH]c(C(=O)OC)cc2c1C[C@H](O)CO`, the GI50 in the test with 786-0 was > 100 µM (inactive); in the test on A549, > 100 µM (inactive); in the test on ACHN it was > 100 µM (inactive); in the test on COLO 205, > 100 µM (inactive); with DU-145 it was > 100 µM (inactive); in the test with EKVX it was 72.1 µM (inactive). The GI50 is > 100 µM (inactive) in the test with HCC 2998; > 100 µM (inactive) in the test on HCT-116; more than 100 µM in the test with HCT-15; > 100 µM (inactive) with LOX IMVI; > 100 µM (inactive) in the test on MCF7; > 100 µM (inactive) in the test on NCI-H23. Also, the GI50 in the test with NCI/ADR-RES, in the test with RPMI-8226, in the test with SF-295, in the test with SK-OV-3, in the test on SR and in the test on SW-620 was > 100 µM (inactive) in each case.
For the compound `CC(=O)c1cccc(NC2C(N)C(NC(=O)N(C)C)(C(C)O)C(C)(O)C2(O)COC(=O)c2c(C)cccc2O)c1` (stereo unspecified), the GI50 with 786-0, in the test on A549, in the test on ACHN, in the test on COLO 205, with DU-145 and in the test with EKVX was < 0.001 µM (active) throughout. The GI50 is < 0.001 µM (active) in the test with HCC 2998; < 0.001 µM (active) with HCT-116; 0.00296 µM in the test with HCT-15; < 0.001 µM (active) with MCF7; < 0.001 µM (active) with NCI-H23; < 0.001 µM (active) with NCI-H460. Also, the GI50 in the test on NCI/ADR-RES is 0.0134 µM (active); in the test with RPMI-8226 it was < 0.001 µM (active); with SF-268, 0.0263 µM (active); in the test on SF-295, 0.00107 µM (active); with SK-OV-3 it was < 0.001 µM (active); in the test on SR, < 0.001 µM (active). In addition, the GI50 in the test on SW-620 was < 0.001 µM (active).
For the compound `C=CCC(CCC(C)=O)(C(=O)OCC)C(=O)OCC`, the GI50 in the test with 786-0, with A549, with ACHN, in the test with COLO 205, with DU-145 and in the test on EKVX was > 100 µM (inactive) throughout. The GI50 with HCC 2998 is > 100 µM (inactive); in the test with HCT-116, > 100 µM (inactive); with HCT-15, more than 100 µM; in the test on MCF7 it was > 100 µM (inactive); with NCI-H23 it was > 100 µM (inactive); in the test on NCI-H460, > 100 µM (inactive). For the same compound, the GI50 with NCI/ADR-RES, in the test with RPMI-8226, in the test on SF-268, with SF-295, with SK-OV-3 and with SR was > 100 µM (inactive) in each case. Besides, the GI50 in the test on SW-620 is > 100 µM (inactive).
For `O=c1oc2ccc(Cl)cc2c2ccccc12`, the GI50 is 40.1 µM (inactive) in the test on 786-0; 63.4 µM (inactive) with A549; > 100 µM (inactive) in the test with ACHN; 65.8 µM (inactive) in the test on COLO 205; > 100 µM (inactive) in the test with DU-145; 10.8 µM (inactive) with EKVX. Besides, the GI50 was > 100 µM (inactive) with HCC 2998; 76.2 µM (inactive) in the test on HCT-116; more than 100 µM in the test with HCT-15; > 100 µM (inactive) in the test on LOX IMVI; 53.2 µM (inactive) in the test with MCF7; 23.8 µM (inactive) in the test with NCI-H23. For the same compound, the GI50 is > 100 µM (inactive) in the test on NCI-H460; 84.1 µM (inactive) in the test with NCI/ADR-RES; > 100 µM (inactive) with RPMI-8226; 20.7 µM (inactive) in the test on SF-268; 34.4 µM (inactive) in the test with SF-295; > 100 µM (inactive) in the test on SR. Further, the GI50 in the test on SW-620 is > 100 µM (inactive).
Regarding `COC(=O)[C@]1(C)CCC[C@@]2(C)C1CC[C@@]13C=C(C(C)C)[C@@H](CC1=O)CC23` (stereo partly specified), the GI50 in the test on 786-0 was 25.9 µM (inactive); in the test with A549 it was 29.2 µM (inactive); in the test on ACHN, 18.6 µM (inactive); in the test with COLO 205, > 10 µM (inactive); in the test with DU-145, 38.4 µM (inactive); in the test with EKVX, 27.4 µM (inactive). The GI50 in the test with HCC 2998 was 38.3 µM (inactive); in the test on HCT-116, 20.4 µM (inactive); in the test with HCT-15, 21.1 µM; with MCF7, 26.1 µM (inactive); in the test with NCI-H23 it was 34 µM (inactive); in the test with NCI-H460, 35.4 µM (inactive). Besides, the GI50 is 23 µM (inactive) with NCI/ADR-RES; 18.5 µM (inactive) in the test with RPMI-8226; 32.5 µM (inactive) with SF-268; 30.6 µM (inactive) in the test with SF-295; 46.3 µM (inactive) with SK-OV-3; 15.5 µM (inactive) in the test with SR. Also, the GI50 with SW-620 is 27.3 µM (inactive).
As to `CC(C)(C)OC(=O)NC(Cc1ccc(O)cn1)C(=O)O` (stereo unspecified), the GI50 in the test with 786-0, in the test with A549, in the test with ACHN, with COLO 205, in the test with DU-145 and in the test on EKVX was > 100 µM (inactive) each time. Further, the GI50 with HCC 2998 was > 100 µM (inactive); with HCT-116, > 100 µM (inactive); with HCT-15, more than 100 µM; in the test on LOX IMVI, > 100 µM (inactive); in the test with MCF7, > 100 µM (inactive); in the test on NCI-H23, > 100 µM (inactive). Further, the GI50 in the test on NCI-H460, in the test with NCI/ADR-RES, in the test on RPMI-8226, in the test on SF-268, with SF-295 and in the test with SR was > 100 µM (inactive) throughout. Besides, the GI50 in the test on SW-620 was > 100 µM (inactive).
Turning to `Cc1ccc(/N=N/C(=N/c2ccccc2)c2ccc(N(CCC#N)CCC#N)cc2)cc1`, the GI50 in the test with 786-0 was 37.8 µM (inactive); in the test on A549 it was 26.7 µM (inactive); in the test on ACHN it was 46 µM (inactive); in the test on COLO 205, 21.7 µM (inactive); with DU-145, 36.6 µM (inactive); in the test with EKVX it was 30.6 µM (inactive). Also, the GI50 in the test on HCC 2998 is 19.4 µM (inactive); in the test with HCT-116, 32.9 µM (inactive); in the test with HCT-15, 44.8 µM; in the test on MCF7, 22.1 µM (inactive); with NCI-H23, 18.3 µM (inactive); in the test on NCI-H460 it was 20.1 µM (inactive). Further, the GI50 with NCI/ADR-RES was > 100 µM (inactive); with RPMI-8226, 39 µM (inactive); in the test on SF-268, 40.3 µM (inactive); in the test on SF-295 it was 27.2 µM (inactive); in the test with SK-OV-3, 30.8 µM (inactive); in the test on SR it was 27.9 µM (inactive). In addition, in the test on SW-620, the GI50 is 45.6 µM (inactive).
Consider `COC(=O)CCCc1ccc2c(c1)CCC2`, for which the GI50 with 786-0, with A549, with ACHN, in the test with COLO 205, in the test with DU-145 and with HCC 2998 was > 100 µM (inactive) each time. The GI50 is > 100 µM (inactive) in the test on HCT-116; more than 100 µM in the test with HCT-15; > 100 µM (inactive) in the test with LOX IMVI; > 100 µM (inactive) in the test on MCF7; > 100 µM (inactive) in the test on NCI-H23; > 100 µM (inactive) in the test on NCI-H460. Further, the GI50 in the test with NCI/ADR-RES, in the test on RPMI-8226, with SF-268, in the test with SF-295, in the test on SK-OV-3 and in the test with SR was > 100 µM (inactive) throughout. Also, the GI50 in the test on SW-620 is > 100 µM (inactive).
